Where “and” joins values, the source holds several entries; their conditions need not be identical. Equal values may be shown once.
Columns and labels:
[1] = 100 kPa, Liquid; for speed of sound: Single path-length method; for mass density: Vibrating tube method
[2] = xn = mol fraction of the nth substance listed; conditions: 100 kPa, Liquid; for speed of sound: Single path-length method; for mass density: Vibrating tube method

CCCCOC(C)=O [butyl ethanoate]
[1]
Conditions | mass density [kg/m3] | speed of sound [m/s]
293.15 K | 881.54 | 1211.6
298.15 K | 876.399 | 1191.5
303.15 K | 871.235 | 1172.4
308.15 K | 866.05 | 1153.9
313.15 K | 860.84 | 1131.5

CCCCOC(C)=O [butyl ethanoate] + CCCCN(CCCC)CCCC
[2], x2 = 0
Conditions | mass density [kg/m3] | speed of sound [m/s]
293.15 K | 881.54 | 1211.6
298.15 K | 876.399 | 1191.5
303.15 K | 871.235 | 1172.4
308.15 K | 866.05 | 1153.9
313.15 K | 860.84 | 1131.5

CCOC(C)=O [ethyl acetate]
[1]
Conditions | mass density [kg/m3] | speed of sound [m/s]
293.15 K | 900.882 | 1164.3
298.15 K | 894.79 | 1142.9
303.15 K | 888.656 | 1119.4
308.15 K | 882.475 | 1097.2
313.15 K | 876.247 | 1075

CCOC(C)=O [ethyl acetate] + CCCCN(CCCC)CCCC
[2], x2 = 0
Conditions | mass density [kg/m3] | speed of sound [m/s]
293.15 K | 900.882 | 1164.3
298.15 K | 894.79 | 1142.9
303.15 K | 888.656 | 1119.4
308.15 K | 882.475 | 1097.2
313.15 K | 876.247 | 1075

COC(C)=O [methyl ethanoate]
[1]
Conditions | mass density [kg/m3] | speed of sound [m/s]
293.15 K | 935.01 | 1180.4
298.15 K | 928.458 | 1157.5
303.15 K | 921.85 | 1134.9
308.15 K | 915.16 | 1109.2
313.15 K | 908.49 | 1089.6

COC(C)=O [methyl ethanoate] + CCCCN(CCCC)CCCC
[2], x2 = 0
Conditions | mass density [kg/m3] | speed of sound [m/s]
293.15 K | 935.01 | 1180.4
298.15 K | 928.458 | 1157.5
303.15 K | 921.85 | 1134.9
308.15 K | 915.16 | 1109.2
313.15 K | 908.49 | 1089.6

CCCCCOC(C)=O [pentyl ethanoate]
[1]
Conditions | mass density [kg/m3] | speed of sound [m/s]
293.15 K | 876.248 | 1243
298.15 K | 871.32 | 1220.7
303.15 K | 865.782 | 1196.8
308.15 K | 860.581 | 1174.2
313.15 K | 855.357 | 1152.3

CCCOC(C)=O [propyl ethanoate]
[1]
Conditions | mass density [kg/m3] | speed of sound [m/s]
293.15 K | 888.964 | 1190.3
298.15 K | 883.369 | 1164.2
303.15 K | 877.422 | 1145
308.15 K | 871.784 | 1123.7
313.15 K | 866.115 | 1102.3

CCCOC(C)=O [propyl ethanoate] + CCCCN(CCCC)CCCC
[2], x2 = 0
Conditions | mass density [kg/m3] | speed of sound [m/s]
293.15 K | 888.964 | 1190.3
298.15 K | 883.369 | 1164.2
303.15 K | 877.422 | 1145
308.15 K | 871.784 | 1123.7
313.15 K | 866.115 | 1102.3

CCCCN(CCCC)CCCC [tributylamine]
[1]
Conditions | mass density | speed of sound [m/s]
293.15 K | 777.01 kg/m3 and 777.006 kg/m3 | 1264.2
298.15 K | 773.283 kg/m3 and 773.28 kg/m3 | 1245.2
303.15 K | 769.55 kg/m3 and 769.552 kg/m3 | 1226.2
308.15 K | 765.81 kg/m3 and 765.811 kg/m3 | 1207.4
313.15 K | 762.06 kg/m3 and 762.061 kg/m3 | 1188.8

CCCCN(CCCC)CCCC [tributylamine] + CCCCCOC(C)=O
[2], x1 = 1
Conditions | mass density [kg/m3] | speed of sound [m/s]
293.15 K | 777.006 | 1264.2
298.15 K | 773.283 | 1245.2
303.15 K | 769.552 | 1226.2
308.15 K | 765.811 | 1207.4
313.15 K | 762.061 | 1188.8

Reference: the NIST ThermoML archive (doi:10.1021/acs.jced.8b01120)
